# Reference: ChEMBL document CHEMBL1201862, “PubChem BioAssay data set” (2004)
#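 Growth conditions: 96-well plates. Treatment: test compound, 48 hours, 5 concentrations. Analysis: linear interpolation between bracketing concentrations; unreached endpoints set to highest concentration. GI50 = concentration required for 50% inhibition of growth.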 Active and inactive are the calls of the source. No stated cut-off is given here; in the data, active = GI50 up to about 1.1 µM and inactive = higher.
# How the values were obtained:
# Test in all cases: NCI anticancer screen, dose series, 48 h
# COLO 205 = tested on: COLO 205
# HCC 2998 = tested on: HCC 2998
# HCT-116 = tested on: HCT-116
# HL-60 = tested on: HL-60
# HOP-62 = tested on: HOP-62
# K562 = tested on: K562
# KM12 = tested on: KM12
# M14 = tested on: M14
# NCI-H23 = tested on: NCI-H23
# OVCAR-3 = tested on: OVCAR-3
# OVCAR-4 = tested on: OVCAR-4
# OVCAR-5 = tested on: OVCAR-5
# PC-3 = tested on: PC-3
# RPMI-8226 = tested on: RPMI-8226
# RXF 393 = tested on: RXF 393
# SK-MEL-2 = tested on: SK-MEL-2
# SN12C = tested on: SN12C
# SW-620 = tested on: SW-620
# T47D = tested on: T47D
# TK-10 = tested on: TK-10
Compound,GI50 (COLO 205),GI50 (HCC 2998),GI50 (HCT-116),GI50 (HL-60),GI50 (HOP-62),GI50 (K562),GI50 (KM12),GI50 (M14),GI50 (NCI-H23),GI50 (OVCAR-3),GI50 (OVCAR-4),GI50 (OVCAR-5),GI50 (PC-3),GI50 (RPMI-8226),GI50 (RXF 393),GI50 (SK-MEL-2),GI50 (SN12C),GI50 (SW-620),GI50 (T47D),GI50 (TK-10)
CC(=O)Nc1cc([As](=O)(O)O)ccc1O [ACETARSONE],> 100 µM (inactive),> 100 µM (inactive),> 100 µM (inactive),> 100 µM (inactive),> 100 µM (inactive),> 100 µM (inactive),> 100 µM (inactive),> 100 µM (inactive),> 100 µM (inactive),> 100 µM (inactive),> 100 µM (inactive),> 100 µM (inactive),> 100 µM (inactive),> 100 µM (inactive),> 100 µM (inactive),> 100 µM (inactive),> 100 µM (inactive),> 100 µM (inactive),> 100 µM (inactive),> 100 µM (inactive)
CN(O)C(=O)Cc1ccc(OCc2cccc(Cl)c2)cc1,> 100 µM (inactive),> 100 µM (inactive),> 100 µM (inactive),> 100 µM (inactive),> 100 µM (inactive),> 100 µM (inactive),> 100 µM (inactive),> 100 µM (inactive),> 100 µM (inactive),> 100 µM (inactive),> 100 µM (inactive),> 100 µM (inactive),> 100 µM (inactive),> 100 µM (inactive),> 100 µM (inactive),> 100 µM (inactive),> 100 µM (inactive),> 100 µM (inactive),40.4 µM (inactive),> 100 µM (inactive)
O=C1CC(c2cccc(Cl)c2)n2cccc21 (stereo not given),> 100 µM (inactive),88.7 µM (inactive),> 100 µM (inactive),32.8 µM (inactive),> 100 µM (inactive),61.4 µM (inactive),77.3 µM (inactive),> 100 µM (inactive),> 100 µM (inactive),> 100 µM (inactive),> 100 µM (inactive),> 100 µM (inactive),49.5 µM (inactive),> 100 µM (inactive),> 100 µM (inactive),37.8 µM (inactive),> 100 µM (inactive),> 100 µM (inactive),44.2 µM (inactive),> 100 µM (inactive)
CN(C)CCNC(=O)c1cccc2ccc(-c3ccc(O)cc3)nc12,3.33 µM (inactive),5.86 µM (inactive),0.698 µM (active),0.847 µM (active),1.47 µM (inactive),0.839 µM (active),4.54 µM (inactive),0.664 µM (active),3.09 µM (inactive),3.13 µM (inactive),2.43 µM (inactive),1.71 µM (inactive),2.37 µM (inactive),2.39 µM (inactive),4.72 µM (inactive),4.5 µM (inactive),2.16 µM (inactive),1.02 µM (active),3.09 µM (inactive),2.94 µM (inactive)
CCN(CC)CCNc1ccc2ncn3c4cc(OC)c(OC)c(O)c4c(=O)c1c23,1.33 µM (inactive),10.5 µM (inactive),0.556 µM (active),11 µM (inactive),11.4 µM (inactive),5.89 µM (inactive),7 µM (inactive),14.2 µM (inactive),2.69 µM (inactive),13 µM (inactive),4.9 µM (inactive),21.5 µM (inactive),6.52 µM (inactive),3.03 µM (inactive),1.36 µM (inactive),20.4 µM (inactive),6.47 µM (inactive),1.4 µM (inactive),21.8 µM (inactive),13.8 µM (inactive)
CCN(CC)CCn1c2ccccc2c(=O)c2c(O)ccc(O)c21,20.6 µM (inactive),> 41.3 µM (inactive),31.1 µM (inactive),6.49 µM (inactive),50.5 µM (inactive),15.9 µM (inactive),49.2 µM (inactive),42 µM (inactive),45.6 µM (inactive),31.5 µM (inactive),17.3 µM (inactive),55.7 µM (inactive),24.5 µM (inactive),19.9 µM (inactive),19 µM (inactive),33.4 µM (inactive),30.8 µM (inactive),13.8 µM (inactive),18.2 µM (inactive),31.6 µM (inactive)
O=C(OC(/C=C/c1ccccc1)P1(=O)N(Cc2ccccc2)[C@@H]2CCCC[C@H]2N1Cc1ccccc1)c1ccccc1 (stereo not given in full),2.04 µM (inactive),4.9 µM (inactive),2.87 µM (inactive),2.79 µM (inactive),5.38 µM (inactive),3.37 µM (inactive),3.57 µM (inactive),3.69 µM (inactive),3.09 µM (inactive),3.93 µM (inactive),4.22 µM (inactive),4.43 µM (inactive),3.16 µM (inactive),2.21 µM (inactive),3.78 µM (inactive),2.25 µM (inactive),3.03 µM (inactive),4.57 µM (inactive),4.43 µM (inactive),4.82 µM (inactive)
O=[N+]([O-])c1cccc(-c2csc(N/N=C3\NC/C(=C/c4ccc5c(c4)OCO5)S3)n2)c1,28.4 µM (inactive),31.9 µM (inactive),30.6 µM (inactive),26.6 µM (inactive),25.2 µM (inactive),38.3 µM (inactive),12.9 µM (inactive),23.3 µM (inactive),20.1 µM (inactive),30.3 µM (inactive),27.9 µM (inactive),28.4 µM (inactive),21.5 µM (inactive),37.7 µM (inactive),22.6 µM (inactive),22.1 µM (inactive),37.2 µM (inactive),34 µM (inactive),29.9 µM (inactive),32.2 µM (inactive)
CCOC(=O)[C@H](CO)NC1=C(Cl)C(=O)c2c(O)ccc(O)c2C1=O,3.87 µM (inactive),> 10 µM (inactive),> 10 µM (inactive),> 10 µM (inactive),> 10 µM (inactive),> 10 µM (inactive),> 10 µM (inactive),> 10 µM (inactive),> 10 µM (inactive),> 10 µM (inactive),> 10 µM (inactive),> 10 µM (inactive),> 10 µM (inactive),> 10 µM (inactive),> 10 µM (inactive),> 10 µM (inactive),> 10 µM (inactive),> 10 µM (inactive),> 10 µM (inactive),> 10 µM (inactive)
CCOC(=O)N1CC2(C(=O)OC)C=CC1C(C(=O)OC)C2 (stereo not given),> 100 µM (inactive),> 100 µM (inactive),> 100 µM (inactive),> 100 µM (inactive),> 100 µM (inactive),> 100 µM (inactive),> 100 µM (inactive),> 100 µM (inactive),> 100 µM (inactive),> 100 µM (inactive),> 100 µM (inactive),> 100 µM (inactive),> 100 µM (inactive),> 100 µM (inactive),> 100 µM (inactive),> 100 µM (inactive),> 100 µM (inactive),> 100 µM (inactive),> 100 µM (inactive),> 100 µM (inactive)
